Assay results from patent publication US20250346600A1, “TRICYCLIC DERIVATIVES AND RELATED USES” (MOMA Therapeutics, Inc., priority 2023, published 2025).
Like-named read-outs stand apart in the source and are kept apart here.

Assays:
[1] = test system: HT29 cells; assay: HT29 (MSS) 7 day viability, CellTiter Glo; format: cell-based; conditions: 7 days, read-out: HT29 (MSS) Viability 7 Day CTGAbs AC50
Outline: (§1)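 HCT116 seeded at 50 cells/well and HT29 at 500 cells/well onto compound plates (10-point 3-fold dilutions from 10 mM DMSO stock), incubated 7 days at 37 °C, 5% CO2.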

[2] = test system: HCT116 cells; assay: HCT116 (MSI) 7 day viability, CellTiter Glo; format: cell-based; conditions: 7 days, read-out: HCT116 (MSI) Viability 7 Day Abs AC50
Outline: as §1

[3] = molecular target: T1, Full length WRN protein (aa 2-1432) (Homo sapiens (Human), UniProt Q14191); assay: WRN ATPase ADP-Glo biochemical assay, Assay Format B (100 μM ATP); conditions: 0.25 nM WRN, 100 nM C6.18 ssDNA, 60 min preincubation, read-out: ATPase ADPGlo AC50 (uM)- Assay Format B
[4] = molecular target: T1, Full length WRN protein (aa 2-1432); assay: WRN ATPase ADP-Glo biochemical assay, Assay Format A (10 μM ATP); conditions: 0.25 nM WRN, 100 nM C6.18 ssDNA, 30 min preincubation, read-out: ATPase ADPGlo AC50 (uM)- Assay Format A
Outline: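 ADP-Glo luminescence measured hydrolysis of ATP by purified, baculovirus-expressed N-terminally tagged full-length WRN. Enzyme (0.5 nM) was preincubated 30 min with compound, then 200 nM ssDNA C6.18 plus 20 μM ATP were added (pre-mix levels) for 30 min at RT. IC50s come from four-parameter fits, geometric mean of at least two trials.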

T1 sequence (Q14191 2-1432): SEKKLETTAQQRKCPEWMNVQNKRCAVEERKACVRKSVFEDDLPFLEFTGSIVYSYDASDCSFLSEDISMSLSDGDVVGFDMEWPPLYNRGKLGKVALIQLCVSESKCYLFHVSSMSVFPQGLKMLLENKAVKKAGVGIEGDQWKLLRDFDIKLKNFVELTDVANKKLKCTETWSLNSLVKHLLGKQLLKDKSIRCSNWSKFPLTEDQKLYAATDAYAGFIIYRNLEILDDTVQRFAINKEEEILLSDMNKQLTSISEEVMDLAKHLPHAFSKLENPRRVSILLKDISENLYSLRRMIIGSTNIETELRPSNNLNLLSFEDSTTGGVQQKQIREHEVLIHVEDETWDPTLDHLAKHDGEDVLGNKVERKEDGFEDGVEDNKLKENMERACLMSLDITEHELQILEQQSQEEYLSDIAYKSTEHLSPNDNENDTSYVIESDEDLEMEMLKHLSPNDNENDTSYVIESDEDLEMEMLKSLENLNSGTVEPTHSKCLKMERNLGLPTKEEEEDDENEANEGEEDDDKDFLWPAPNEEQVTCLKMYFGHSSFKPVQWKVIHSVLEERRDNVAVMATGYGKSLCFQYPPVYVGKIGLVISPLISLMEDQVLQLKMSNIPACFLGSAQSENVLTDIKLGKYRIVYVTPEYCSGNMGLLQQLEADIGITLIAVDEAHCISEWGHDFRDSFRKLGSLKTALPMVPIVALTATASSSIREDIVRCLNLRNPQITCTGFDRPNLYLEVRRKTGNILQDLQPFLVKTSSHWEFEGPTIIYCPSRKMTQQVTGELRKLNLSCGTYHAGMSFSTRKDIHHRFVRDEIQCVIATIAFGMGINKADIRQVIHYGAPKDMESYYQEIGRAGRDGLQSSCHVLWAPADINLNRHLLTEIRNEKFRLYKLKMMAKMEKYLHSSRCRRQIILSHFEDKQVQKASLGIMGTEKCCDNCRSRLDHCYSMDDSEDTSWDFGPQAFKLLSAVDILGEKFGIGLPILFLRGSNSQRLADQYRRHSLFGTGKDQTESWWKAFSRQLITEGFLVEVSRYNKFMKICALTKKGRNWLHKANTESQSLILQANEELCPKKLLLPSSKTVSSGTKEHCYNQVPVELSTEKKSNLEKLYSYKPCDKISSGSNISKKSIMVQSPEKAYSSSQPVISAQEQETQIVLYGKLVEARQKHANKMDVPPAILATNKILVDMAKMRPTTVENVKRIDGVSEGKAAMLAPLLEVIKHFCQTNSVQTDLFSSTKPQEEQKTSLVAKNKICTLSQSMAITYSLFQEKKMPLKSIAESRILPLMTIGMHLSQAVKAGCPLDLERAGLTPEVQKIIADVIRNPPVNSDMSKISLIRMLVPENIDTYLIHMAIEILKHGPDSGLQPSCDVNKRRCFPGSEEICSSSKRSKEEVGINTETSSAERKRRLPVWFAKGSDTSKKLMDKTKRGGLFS

Row | Structure (SMILES) | AC50 ([1]; Homo sapiens, HT-29, 168 h) | AC50 ([2]; Homo sapiens, HCT-116, 168 h) | AC50 [3] | AC50 [4] | AC50 [1] | AC50 [2]
1 | C=CC(=O)N1CCc2nn(-c3ccc(C4CCC4)cc3O)c3c2C(C1)N(C(=O)c1ncc(C(F)(F)F)c(N)n1)CC3 (stereo not drawn) [Compound 159, 1-(5-(4-amino-5-(trifluoromethyl)pyrimidine-2-carbonyl)-2-(4-cyclobutyl-2-hydroxyphenyl)-2,3,4,5,5a,6,8,9-octahydro-7H-1,2,5,7-tetraazabenzo[cd]azulen-7-yl)prop-2-en-1-one] | > 3000 nM | 1 to 100 nM | 0.015 to 0.055 µM | 0.0015 to 0.005 µM | – | –
2 | C=CC(=O)N1CC(O)c2nn(-c3ccc(C4CCC4)cc3)c3c2C(C1)N(C(=O)c1ccc(Br)c2[nH]c(C(F)F)nc12)CC3 (stereo not drawn) [Compound 160, 1-(5-(7-bromo-2-(difluoromethyl)-1H-benzo[d]imidazole-4-carbonyl)-2-(4-cyclobutylphenyl)-9-hydroxy-2,3,4,5,5a,6,8,9-octahydro-7H-1,2,5,7-tetraazabenzo[cd]azulen-7-yl)prop-2-en-1-one] | > 3000 nM | 1 to 100 nM | 0.0015 to 0.005 µM | < 0.0015 µM | – | –
3 | C=CC(=O)N1CCc2nn(-c3ccc(C4CCC4)cc3)c3c2C(C1)N(C(=O)c1cnc(C(F)(F)F)nc1N)CC3 (stereo not drawn) [Compound 161, 1-(5-(4-amino-2-(trifluoromethyl)pyrimidine-5-carbonyl)-2-(4-cyclobutylphenyl)-2,3,4,5,5a,6,8,9-octahydro-7H-1,2,5,7-tetraazabenzo[cd]azulen-7-yl)prop-2-en-1-one] | > 3000 nM | 1 to 100 nM | 0.005 to 0.015 µM | < 0.0015 µM | – | –
4 | C=CC(=O)N1CCc2nn(-c3ccc(C4CC4)cc3)c3c2C(C1)N(C(=O)c1cnc(Cl)cc1N)CC3 (stereo not drawn) [Compound 162, 1-(5-(4-amino-6-chloronicotinoyl)-2-(4-cyclopropylphenyl)-2,3,4,5,5a,6,8,9-octahydro-7H-1,2,5,7-tetraazabenzo[cd]azulen-7-yl)prop-2-en-1-one] | – | – | 0.005 to 0.015 µM | < 0.0015 µM | > 3000 nM | 1 to 100 nM
5 | C=CC(=O)N1CCc2nn(-c3ccc(C4CC4)cc3O)c3c2C(C1)N(C(=O)c1cnc(C(F)(F)F)cc1N)CC3 (stereo not drawn) [Compound 163, 1-(5-(4-amino-6-(trifluoromethyl)nicotinoyl)-2-(4-cyclopropyl-2-hydroxyphenyl)-2,3,4,5,5a,6,8,9-octahydro-7H-1,2,5,7-tetraazabenzo[cd]azulen-7-yl)prop-2-en-1-one] | > 3000 nM | 1 to 100 nM | 0.005 to 0.015 µM | < 0.0015 µM | – | –
6 | C=CC(=O)N1CCc2nn(-c3ccc(C4CC4)cc3)c3c2C(C1)N(C(=O)c1cnc(Br)cc1N)CC3 (stereo not drawn) [Compound 166, 1-(5-(4-amino-6-bromonicotinoyl)-2-(4-cyclopropylphenyl)-2,3,4,5,5a,6,8,9-octahydro-7H-1,2,5,7-tetraazabenzo[cd]azulen-7-yl)prop-2-en-1-one] | > 3000 nM | 1 to 100 nM | 0.005 to 0.015 µM | < 0.0015 µM | – | –
7 | C=CC(=O)N1CCc2nn(-c3ccc(C4CC4)cc3)c3c2C(C1)N(C(=O)c1ccc(Cl)nc1N)CC3 (stereo not drawn) [Compound 167, 1-(5-(2-amino-6-chloronicotinoyl)-2-(4-cyclopropylphenyl)-2,3,4,5,5a,6,8,9-octahydro-7H-1,2,5,7-tetraazabenzo[cd]azulen-7-yl)prop-2-en-1-one] | > 3000 nM | 1 to 100 nM | 0.015 to 0.055 µM | < 0.0015 µM | – | –
8 | C=CC(=O)N1CCc2nn(-c3ccc(C(C)C)cc3O)c3c2C(C1)N(C(=O)c1ccc(Br)c2[nH]c(C(F)F)nc12)CC3 (stereo not drawn) [Compound 174, 1-(5-(7-bromo-2-(difluoromethyl)-1H-benzo[d]imidazole-4-carbonyl)-2-(2-hydroxy-4-isopropylphenyl)-2,3,4,5,5a,6,8,9-octahydro-7H-1,2,5,7-tetraazabenzo[cd]azulen-7-yl)prop-2-en-1-one] | > 3000 nM | 1 to 100 nM | 0.0015 to 0.005 µM | < 0.0015 µM | – | –
9 | C=CC(=O)N1CCc2nn(-c3ccc(C4CC4)cc3)c3c2C(C1)N(C(=O)c1cnc(C(F)(F)F)c(F)c1N)CC3 (stereo not drawn) [Compound 178, 1-(5-(4-amino-5-fluoro-6-(trifluoromethyl)nicotinoyl)-2-(4-cyclopropylphenyl)-2,3,4,5,5a,6,8,9-octahydro-7H-1,2,5,7-tetraazabenzo[cd]azulen-7-yl)prop-2-en-1-one] | > 3000 nM | 1 to 100 nM | 0.005 to 0.015 µM | < 0.0015 µM | – | –
10 | C=CC(=O)N1CCc2nn(-c3ccc(C4CC4)cc3)c3c2C(C1)N(C(=O)c1cnc(Cl)c(F)c1N)CC3 (stereo not drawn) [Compound 181, 1-(5-(4-amino-6-chloro-5-fluoronicotinoyl)-2-(4-cyclopropylphenyl)-2,3,4,5,5a,6,8,9-octahydro-7H-1,2,5,7-tetraazabenzo[cd]azulen-7-yl)prop-2-en-1-one] | > 3000 nM | 1 to 100 nM | 0.0015 to 0.005 µM | < 0.0015 µM | – | –
11 | C=CC(=O)N1CCc2nn(-c3ccc(C4CC4)cc3)c3c2C(C1)N(C(=O)c1cnc(Br)c(F)c1N)CC3 (stereo not drawn) [Compound 182, 1-(5-(4-amino-6-bromo-5-fluoronicotinoyl)-2-(4-cyclopropylphenyl)-2,3,4,5,5a,6,8,9-octahydro-7H-1,2,5,7-tetraazabenzo[cd]azulen-7-yl)prop-2-en-1-one] | > 3000 nM | 1 to 100 nM | 0.0015 to 0.005 µM | < 0.0015 µM | – | –
12 | C=CC(=O)N1CCc2nn(-c3ccc(C4CC4)cc3)c3c2C(C1)N(C(=O)c1cnc(C(C)(F)F)cc1N)CC3 (stereo not drawn) [Compound 183, 1-(5-(4-amino-6-(1,1-difluoroethyl)nicotinoyl)-2-(4-cyclopropylphenyl)-2,3,4,5,5a,6,8,9-octahydro-7H-1,2,5,7-tetraazabenzo[cd]azulen-7-yl)prop-2-en-1-one] | > 3000 nM | 1 to 100 nM | 0.0015 to 0.005 µM | < 0.0015 µM | – | –
13 | C=CC(=O)N1CC(O)c2nn(-c3ccc(C4CC4)cc3)c3c2C(C1)N(C(=O)c1cnc(C(F)(F)F)cc1N)CC3 (stereo not drawn) [Compound 184, 1-(5-(4-amino-6-(trifluoromethyl)nicotinoyl)-2-(4-cyclopropylphenyl)-9-hydroxy-2,3,4,5,5a,6,8,9-octahydro-7H-1,2,5,7-tetraazabenzo[cd]azulen-7-yl)prop-2-en-1-one] | > 3000 nM | 1 to 100 nM | 0.005 to 0.015 µM | < 0.0015 µM | – | –
14 | C=CC(=O)N1CCc2nn(-c3ccc(C4CC4)cc3)c3c2C(C1)N(C(=O)c1c(N)cc(C(F)(F)F)nc1N)CC3 (stereo not drawn) [Compound 186, 1-(2-(4-cyclopropylphenyl)-5-(2,4-diamino-6-(trifluoromethyl)nicotinoyl)-2,3,4,5,5a,6,8,9-octahydro-7H-1,2,5,7-tetraazabenzo[cd]azulen-7-yl)prop-2-en-1-one] | > 3000 nM | 1 to 100 nM | 0.005 to 0.015 µM | < 0.0015 µM | – | –
15 | C=CC(=O)N1CC(OC)c2nn(-c3ccc(C4CC4)cc3)c3c2C(C1)N(C(=O)c1cnc(C(F)(F)F)cc1N)CC3 (stereo not drawn) [Compound 187, 1-(5-(4-amino-6-(trifluoromethyl)nicotinoyl)-2-(4-cyclopropylphenyl)-9-methoxy-2,3,4,5,5a,6,8,9-octahydro-7H-1,2,5,7-tetraazabenzo[cd]azulen-7-yl)prop-2-en-1-one] | > 3000 nM | 1 to 100 nM | 0.005 to 0.015 µM | < 0.0015 µM | – | –
